Test results taken from patent US10377991B2, “Method of producing airway epithelial cells” (KYOTO UNIVERSITY, priority 2015, dated 2019).

Test system: proximal airway epithelial progenitor cells induced from human iPS cells (201B7)
Assay: Induction of differentiation into ciliated airway epithelial cells in Step 6 three-dimensional culture, qRT-PCR of FOXJ1, DNAHS and SNTN
Type: cell-based
Conditions: 10 μM DAPT in medium for Step 6 from Day 42, read on Day 56; versus Step 6 medium without DAPT
Experimental: On Day 42 (i.e., upon completion of Step 5), the medium in the lower layer of Cell Culture Inserts (Corning) was exchanged with the medium for Step 6, and the medium of the lower layer was selectively exchanged with another medium every other day.
The medium for Step 6 was prepared by supplementing the Pneumacult-ALI Maintenance Medium (STEMCELL Technologies) with 10 μM Y-27632.
On Day 6 (i.e., upon completion of Step 1), Day 14 (i.e., upon completion of Step 3), Day 28 (i.e., upon completion of Step 4), Day 42 (i.e., upon completion of Step 5), and Day 56 (i.e., upon completion of Step 6), expression levels of FOXJ1, DNAHS, and SNTN as marker genes specific to ciliated airway epithelial cells were analyzed via quantitative RT-PCR. Day 56 (+DAPT) represents the results of culture conducted in the medium for Step 6 supplemented with 10 μM DAPT from Day 42 (i.e., upon completion of Step 5). The measured values indicate the ratio of the cell expression levels to the amount of β-actin (AB) corrected with the expression levels in the human fetal trachea (F-trachea, 29-weeks pregnant, BioChain Institute).

C[C@H](NC(=O)Cc1cc(F)cc(F)c1)C(=O)N[C@H](C(=O)OC(C)(C)C)c1ccccc1 [DAPT, N-[2S-(3,5-difluorophenyl)acetyl]-L-alanyl-2-phenyl-1,1-dimethylethyl ester-glycine]
differentiation into ciliated airway epithelial cells (expression of FOXJ1, DNAHS, SNTN by qRT-PCR): further accelerated
